Experimental data published in patent US10131652B2, “Pyrimidinyloxy benzene derivatives as herbicides” (E. I. DU PONT DE NEMOURS AND COMPANY, priority 2014, dated 2018).
Where two headings read alike, the source gives them in different places.

Tests used:
Type in all cases: in vivo
[1] = tested on: Italian ryegrass (Lolium multiflorum); assay: Test B pre-/postemergence plant response
Method in brief: (§1)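 Seeds in loam–sand blend given preemergence soil spray; separately, plants at one- to two-leaf stage (2–10 cm) sprayed postemergence, compounds in non-phytotoxic solvent with surfactant. Injury rated visually versus untreated controls after ~10 days in greenhouse, 0 (no effect) to 100 (complete control).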

[2] = tested on: kochia (Kochia scoparia); assay: Test B pre-/postemergence plant response
Method in brief: as §1

[3] = tested on: ragweed (common ragweed, Ambrosia elatior); assay: Test B pre-/postemergence plant response
Method in brief: as §1

[4] = tested on: Italian ryegrass (Lolium multiflorum); assay: Test D pre-/postemergence plant response; conditions: Lolium multiflorum; for pest or weed control at 16 g/ha: 16 g ai/ha; for pest or weed control at 31 g/ha: 31 g ai/ha; for pest or weed control at 62 g/ha: 62 g ai/ha; for pest or weed control at 125 g/ha: 125 g ai/ha
Method in brief: (§2)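 Pre-/post-emergence greenhouse test. Pre: seeded loam+sand, sprayed same day. Post: 1–4 leaf plants (2–18 cm), peat/vermiculite mix. Formulation: non-phytotoxic solvent + surfactant. Scored visually d13–15, 0–100 vs control.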

[5] = tested on: barnyardgrass (Echinochloa crus-galli); assay: Test D pre-/postemergence plant response; conditions: Echinochloa crus-galli; for pest or weed control at 16 g/ha: 16 g ai/ha; for pest or weed control at 16 g/ha / pest or weed control at 31 g/ha: scale 0 to 100 (0 no effect, 100 complete control); for pest or weed control at 31 g/ha: 31 g ai/ha; for pest or weed control at 62 g/ha: 62 g ai/ha; for pest or weed control at 125 g/ha: 125 g ai/ha
Method in brief: as §2

[6] = tested on: blackgrass (Alopecurus myosuroides); assay: Test D pre-/postemergence plant response; conditions: Alopecurus myosuroides; for pest or weed control at 16 g/ha: 16 g ai/ha; for pest or weed control at 31 g/ha: 31 g ai/ha; for pest or weed control at 62 g/ha: 62 g ai/ha; for pest or weed control at 125 g/ha: 125 g ai/ha
Method in brief: as §2

[7] = tested on: corn (Zea mays); assay: Test D pre-/postemergence plant response; conditions: Zea mays; for Corn plant response rating (crop injury, 0 = no effect, 100 = complete kill) at 62 g/ha: 62 g ai/ha
Method in brief: as §2

[8] = tested on: giant foxtail (Setaria faberii); assay: Test D pre-/postemergence plant response; conditions: Setaria faberi; for pest or weed control at 16 g/ha: 16 g ai/ha; for pest or weed control at 31 g/ha: 31 g ai/ha; for pest or weed control at 62 g/ha: 62 g ai/ha; for pest or weed control at 125 g/ha: 125 g ai/ha
Method in brief: as §2

[9] = tested on: lambsquarters (Chenopodium album); assay: Test D pre-/postemergence plant response; conditions: Chenopodium album, post-emergence, Postemergence, scale 0 to 100 (0 no effect, 100 complete control), read-out: Lambsquarters plant response rating
Method in brief: as §2

[10] = 125 g ai/ha, postemergence, 0 to 100 scale, 0 no effect, 100 complete control
[11] = Postemergence, 500 g ai/ha, 0 to 100 scale (0 no effect, 100 complete control)
[12] = Preemergence, 125 g ai/ha, 0 to 100 scale where 0 is no effect and 100 is complete control
[13] = Preemergence, 500 g ai/ha, 0 to 100 scale where 0 is no effect and 100 is complete control
[14] = post-emergence, Postemergence, scale 0 to 100 (0 no effect, 100 complete control), read-out: Ryegrass, Italian plant response rating
[15] = post-emergence, Postemergence, scale 0 to 100, 0 no effect, 100 complete control, read-out: Plant response rating, Ryegrass, Italian
[16] = pre-emergence, Preemergence, scale 0 to 100 (0 no effect, 100 complete control), read-out: Plant response rating, Ryegrass, Italian
[17] = post-emergence, Postemergence, read-out: Barnyardgrass plant response rating
[18] = post-emergence, Postemergence, scale 0 to 100, 0 no effect, 100 complete control, read-out: Plant response rating, Barnyardgrass
[19] = pre-emergence, Preemergence, read-out: Plant response rating (scale 0 to 100), Barnyardgrass
[20] = pre-emergence, Preemergence, read-out: Plant response rating, Barnyardgrass
[21] = post-emergence, Postemergence, scale 0 to 100 (0 no effect, 100 complete control), read-out: Blackgrass plant response rating
[22] = post-emergence, Postemergence, scale 0 to 100, 0 no effect, 100 complete control, read-out: Plant response rating, Blackgrass
[23] = pre-emergence, Preemergence, scale 0 to 100 (0 no effect, 100 complete control), read-out: Plant response rating, Blackgrass
[24] = post-emergence, Postemergence, scale 0 to 100 (0 no effect, 100 complete control), read-out: Foxtail, Giant plant response rating
[25] = post-emergence, Postemergence, scale 0 to 100, 0 no effect, 100 complete control, read-out: Plant response rating, Foxtail, Giant
[26] = pre-emergence, Preemergence, scale 0 to 100 (0 no effect, 100 complete control), read-out: Plant response rating, Foxtail, Giant

FC(F)c1cc(-c2ccccc2Oc2ncc(Cl)cn2)on1 [Compound 53, 5-chloro-2-[2-[3-(difluoromethyl)-5-isoxazolyl]phenoxy]pyrimidine]
Plant response rating, Ryegrass, Italian [1, 10]: 80 | Plant response rating, Ryegrass, Italian [1, 11]: 100 | Plant response rating, Ryegrass, Italian [1, 12]: 10 | Plant response rating, Ryegrass, Italian [1, 13]: 40 | Plant response rating, Kochia [2, 10]: 100 | Plant response rating, Kochia [2, 11]: 100 | Plant response rating, Kochia [2, 12]: 100 | Plant response rating, Kochia [2, 13]: 100 | Plant response rating, Ragweed [3, 10]: 60 | Plant response rating, Ragweed [3, 11]: 90 | Plant response rating, Ragweed [3, 12]: 10 | Plant response rating, Ragweed [3, 13]: 50 | pest or weed control at 16 g/ha [4, 14]: 0% | pest or weed control at 31 g/ha [4, 14]: 5% | pest or weed control at 62 g/ha [4, 15]: 5% | pest or weed control at 125 g/ha [4, 15]: 5% | pest or weed control at 125 g/ha ([4]; pre-emergence, Preemergence, read-out: Plant response rating (scale 0 to 100), Ryegrass, Italian): 60% | pest or weed control at 16 g/ha [4, 16]: 0% | pest or weed control at 31 g/ha [4, 16]: 10% | pest or weed control at 62 g/ha [4, 16]: 15% | pest or weed control at 16 g/ha [5, 17]: 5% | pest or weed control at 31 g/ha [5, 17]: 10% | pest or weed control at 62 g/ha [5, 18]: 25% | pest or weed control at 125 g/ha [5, 18]: 35% | pest or weed control at 62 g/ha [5, 19]: 40% | pest or weed control at 125 g/ha [5, 19]: 95% | pest or weed control at 16 g/ha [5, 20]: 0% | pest or weed control at 31 g/ha [5, 20]: 5% | pest or weed control at 16 g/ha [6, 21]: 5% | pest or weed control at 31 g/ha [6, 21]: 40% | pest or weed control at 62 g/ha [6, 22]: 20% | pest or weed control at 125 g/ha [6, 22]: 30% | pest or weed control at 125 g/ha ([6]; pre-emergence, Preemergence, read-out: Plant response rating (scale 0 to 100), Blackgrass): 95% | pest or weed control at 16 g/ha [6, 23]: 5% | pest or weed control at 31 g/ha [6, 23]: 25% | pest or weed control at 62 g/ha [6, 23]: 90% | plant injury at 16 g/ha ([7]; post-emergence, Postemergence, 16 g ai/ha, scale 0 to 100 (0 no effect, 100 complete control), read-out: Corn plant response rating): 0% | plant injury at 31 g/ha ([7]; post-emergence, Postemergence, 31 g ai/ha, scale 0 to 100 (0 no effect, 100 complete control), read-out: Corn plant response rating): 0% | Corn plant response rating (crop injury, 0 = no effect, 100 = complete kill) at 62 g/ha ([7]; post-emergence, Postemergence, scale 0 to 100, 0 no effect, 100 complete control): 0% | Corn plant response rating (crop injury, 0 = no effect, 100 = complete kill) at 125 g/ha ([7]; post-emergence, Postemergence, 125 g ai/ha, scale 0 to 100, 0 no effect, 100 complete control): 0% | plant injury at 125 g/ha ([7]; pre-emergence, Preemergence, 125 g ai/ha, read-out: Plant response rating (scale 0 to 100), Corn): 5% | Corn plant response rating (crop injury, 0 = no effect, 100 = complete kill) at 16 g/ha ([7]; pre-emergence, Preemergence, 16 g ai/ha, scale 0 to 100 (0 no effect, 100 complete control)): 5% | Corn plant response rating (crop injury, 0 = no effect, 100 = complete kill) at 31 g/ha ([7]; pre-emergence, Preemergence, 31 g ai/ha, scale 0 to 100 (0 no effect, 100 complete control)): 10% | Corn plant response rating (crop injury, 0 = no effect, 100 = complete kill) at 62 g/ha ([7]; pre-emergence, Preemergence, scale 0 to 100 (0 no effect, 100 complete control)): 100% | pest or weed control at 16 g/ha [8, 24]: 40% | pest or weed control at 31 g/ha [8, 24]: 20% | pest or weed control at 62 g/ha [8, 25]: 25% | pest or weed control at 125 g/ha [8, 25]: 30% | pest or weed control at 125 g/ha ([8]; pre-emergence, Preemergence, read-out: Plant response rating (scale 0 to 100), Foxtail, Giant): 100% | pest or weed control at 16 g/ha [8, 26]: 10% | pest or weed control at 31 g/ha [8, 26]: 85% | pest or weed control at 62 g/ha [8, 26]: 98% | pest or weed control at 16 g/ha ([9]; 16 g ai/ha): 70% | pest or weed control at 31 g/ha ([9]; 31 g ai/ha): 80%
